Results taken from PMC11249646, “Small-Molecule Disruptors of the Interaction between Calcium- and Integrin-Binding Protein 1 and Integrin αIIbβ3 as Novel Antiplatelet Agents” (ACS Pharmacology & Translational Science, 2024).
Where two headings read alike, the source gives them in different places.

Target: T1, CIB1 and αIIb interaction (CIB1-GST : F-αIIb peptide) (Homo sapiens, UniProt Q99828)
T1 construct: made in house; host or cells: BL-21 plus RIL cells (E. coli)
T1 sequence (Q99828 1-191): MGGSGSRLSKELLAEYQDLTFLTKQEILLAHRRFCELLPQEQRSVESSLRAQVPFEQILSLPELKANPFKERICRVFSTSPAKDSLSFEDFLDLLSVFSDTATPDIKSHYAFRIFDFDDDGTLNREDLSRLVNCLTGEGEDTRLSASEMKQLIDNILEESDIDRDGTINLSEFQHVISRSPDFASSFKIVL
Assay: FP assay, 1536-well qHTS format (primary and confirmatory screen)
Assay type: binding
Settings: for Efficacy (%): negative = inhibition; for Curve Class: negative sign = inhibitory curve; for IC50: read-out: IC50

[1] = qHTS primary screen hits, Table S2
[2] = qHTS primary screen hits, Table S2, several classes where COUNT > 1
[3] = qHTS primary screen of LOPAC/NPACT libraries

Compound | Efficacy (%) [1] [%] | IC50 [1] [µM] | Curve Class [2] | Efficacy (%) [3] [%] | Curve Class [3] | IC50 [3] [µM] | further results
CC(C)(C)OC(=O)c1csc(-n2nc(-c3ccc(F)c(F)c3)c(-c3ccccc3)c2O)n1.O=C(O)C(F)(F)F [NCGC00356364-01] | -24 | 56.2 |  |  |  |  | Curve Class [1]: -2.4
Cc1ccc(C)c(SC2=NS(=O)(=O)c3cc(C(=O)Nc4ccc5ncccc5c4)ccc32)c1 [NCGC00238689-01] | -27 | 44.7 |  |  |  |  | Curve Class [1]: -2.4
CS(=O)(=O)c1ccc(C(=O)C2C(=O)CCCC2=O)c([N+](=O)[O-])c1 [NCGC00163843-03] | -30 | 126 | -2.4 |  |  |  | 
Cc1nc2sccn2c(=O)c1CCN1CCC(=C(c2ccc(F)cc2)c2ccc(F)cc2)CC1 [NCGC00015877-09] |  |  |  | -22 | -2.2 | 56.2 | 
Cc1cc(OCCCc2c(C(=O)O)n(Cc3cccnc3)c3c(-c4c(COc5ccc(N6CCN(S(C)(=O)=O)CC6)cc5)nn(C)c4C)cccc23)cc(C)c1Cl [NCGC00347283-01] | -26 | 34.1 |  |  |  |  | Curve Class [1]: -2.4
Cl.Oc1ccc([C@H]2CNCc3c2ccc(O)c3O)cc1O [NCGC00183049-01] | -93 | 89.1 |  |  |  |  | Curve Class [1]: -3
Nc1cccc2c(N)cccc12 [NCGC00091284-03] | -33 | 113 |  |  |  |  | 
Cc1cc(Cl)ccc1-n1c(CCC(=O)O)ccc1-c1cccs1 [NCGC00100435-03] | -33 | 50.1 |  |  |  |  | Curve Class [1]: -2.2
CC/C(=C(/CC)c1ccc(O)cc1)c1ccc(O)cc1 [NCGC00090749-11] | -29 | 42.9 | -2.4 |  |  |  | 
C=C1CCC2C(C)(C)CC(O)CC2(C)C1CCC(C)CCOC(=O)CCC(=O)O (centres unmarked) [NCGC00380160-01] |  |  |  | -24 | -2.4 | 39.8 | 
CCCc1c(OCCCOc2ccc(OCC(=O)O)cc2)ccc(C(C)=O)c1O [NCGC00015599-05] |  |  |  | -25 | -2.2 | 50.1 | 
CC1(C)CCC(CN2CCN(c3ccc(C(=O)NS(=O)(=O)c4ccc(NCC5CCOCC5)c([N+](=O)[O-])c4)c(Oc4cnc5[nH]ccc5c4)c3)CC2)=C(c2ccc(Cl)cc2)C1 [NCGC00345789-10] |  |  |  | -26 | -2.4 | 39.8 | 
CC(=O)NC(c1ccco1)c1cc(Br)c2cccnc2c1O.O=C(O)C(F)(F)F (centres unmarked) [NCGC00183684-06] | -40 | 50.1 | -2.2 |  |  |  | 
Oc1ccc2c3c1O[C@H]1c4[nH]c5c(N=C=S)cccc5c4C[C@@]4(O)[C@@H](C2)N(CC2CC2)CC[C@]314 [NCGC00485321-01] |  |  |  | -30 | -2.4 | 100 | 
Cc1ccc(CNc2ncnc3ccc(-c4ccc([C@@H](C)O)o4)cc23)o1 [NCGC00189252-01] |  |  |  |  |  |  | Efficacy (%) (qHTS FP screen hits, Table S2): -27%; IC50 (qHTS FP screen hits, Table S2): 12.6 µM
Cc1ccn2c(Nc3ccc4c(c3)OCO4)c(-c3ccccn3)nc2c1.O=C(O)C(F)(F)F [NCGC00241360-01] | -51 | 56.2 | -2.4 |  |  |  | 
CC[C@]1(O)CC[C@H]2[C@@H]3CCC4=CCCC[C@@H]4[C@H]3CC[C@@]21C [NCGC00167514-02] | -100 | 31.6 | -1.1 |  |  |  | 
O=c1c(O)c(-c2ccc(O)cc2O)oc2cc(O)cc(O)c12 [NCGC00261461-01] |  |  |  | -26 | -1.2 | 4 | 
Cc1ccnc(NC(=S)N2CCc3ccccc3C2)c1.O=C(O)C(F)(F)F [NCGC00241083-01] | -23 | 79.4 | -2.4 |  |  |  | 

Compound | Efficacy (%) [1] [%] | IC50 [1] [µM] | Curve Class [2] | Efficacy (%) [3] [%] | Curve Class [3] | IC50 [3] [µM] | further results
COc1ccc(Cl)cc1C(=O)NCCc1ccc(S(=O)(=O)NC(=O)NC2CCCCC2)cc1 [NCGC00015467-16] |  |  |  | -14 | -2.4 | 31.6 | 
CCCCCCCCCCCCCCCC[N+](C)(C)CC.[Br-] [NCGC00166120-02] | -45 | 89.1 | -3 |  |  |  | 
Cc1ccc(O)c(N=Nc2ccccc2)n1 [NCGC00185991-01] |  |  |  | -14 | -1.2 | 1.8 | 
COc1cc(Nc2cc(C#N)nc3cc(OCCCN4CCN(C)CC4)c(OC)cc23)c(Cl)cc1Cl [NCGC00390366-01] |  |  |  | -33 | -2.4 | 56.2 | 
CN(N=O)c1cc(O)ccc1O [NCGC00015372-04] | -50 | 50.1 |  |  |  |  | Curve Class [1]: -2.2
NS(=O)(=O)c1ccc(NCc2cn(-c3nc(C(=O)O)cs3)nc2-c2ccccc2)cc1.O=C(O)C(F)(F)F [NCGC00357525-01] | -25 | 56.2 | -2.4 |  |  |  | 
C/C=C/C=C/c1cc2c(C=O)c(O)c(CC=C(C)C)cc2o1 [NCGC00386103-01] |  |  |  | -28 | -2.4 | 63.1 | 
CCc1c(-c2ccccc2)c(-c2ccccc2)nn1-c1ccccc1-c1cccc(OCC(=O)O)c1 [NCGC00387254-02] | -30 | 56.2 |  |  |  |  | Curve Class (qHTS primary screen hits, Table S2, NPACT library): -2.4
CC(=O)c1c(O)c(C)c(O)c(Cc2c(O)c3c(c(C(=O)/C=C/c4ccccc4)c2O)OC(C)(C)C=C3)c1O [NCGC00025228-08] | -45 | 28.2 |  |  |  |  | Curve Class [1]: -1.2
NC[C@H](O)c1ccc(O)c(O)c1 [NCGC00159406-07] | -18 | 21.3 |  |  |  |  | 
COc1ccc(C2CC(=O)Nc3nc(N4CCCCC4)sc32)c(OC)c1.O=C(O)C(F)(F)F (centres unmarked) [NCGC00488246-02] | -89 | 56.2 | -2.3 |  |  |  | 
CC(C)COc1ccc(-c2ccc(=O)n(CC(=O)NCCc3ccccc3)n2)cc1.O=C(O)C(F)(F)F [NCGC00262348-01] | -38 | 56.2 |  |  |  |  | Curve Class [1]: -2.4
COC(=O)C1C(O)CCC2CN3CCc4c([nH]c5ccccc45)C3CC21 (centres unmarked) [NCGC00015878-08] |  |  |  | -68 | -2.2 |  | 
Cn1cc(-c2cnc3ccc4ccc(CS(=O)(=O)NCc5ccccn5)cc4c(=O)c3c2)cn1 [NCGC00378567-02] |  |  |  | -17 | -1.4 | 10 | 
COC1=C(OC)C(=O)C(CCCCCCCCCCO)=C(C)C1=O [NCGC00160514-02] | -26 | 50.1 | -2.4 |  |  |  | 
COc1ccc(S(=O)(=O)Nc2nc(-c3cccc([N+](=O)[O-])c3)cs2)cc1OC [NCGC00370730-07] |  |  |  | -22 | -1.4 | 22.4 | 
O=C1CCCC2=C1C(c1n[nH]cc1Br)N=C(Nc1nc3ccccc3o1)N2 (centres unmarked) [NCGC00229723-01] | -18 | 50.1 |  |  |  |  | Curve Class [1]: -2.4
O.O=C(O)[C@@H]1[C@H]2C[C@H]3c4[nH]c5ccccc5c4CCN3C[C@@H]2CC[C@@H]1O [NCGC00178432-05] | -32 | 44.7 | -2.4 |  |  |  | 
Cc1ccccc1C(=O)N1CCc2cc(-c3nc(NC(=O)Cc4cccc(OCCOCCOCCN)c4)sc3C)ccc21.O=C(O)C(F)(F)F [NCGC00351617-01] | -37 | 50.1 | -2.4 |  |  |  | 
